For data set [1], the system named is iHeps in iMPCCs. Conditions: for TC50 in MPCCs ATP / TC50 in MPCCs Albumin / TC50 in MPCCs Urea: human, 6 days.
The conditions of data set [2]: total human plasma concentration; cited from earlier work.
Data set [3] deals with primary human hepatocytes in MPCCs. The following applies: (ref 19), cited from earlier work; for TC50 in MPCCs ATP: concentration at which activity decreases by 50% of DMSO-only controls.

Counter-ions that a name gives are not always drawn.

Turning to `CCN(CC)CCOc1ccc(C(=C(Cl)c2ccccc2)c2ccccc2)cc1` [Clomiphene citrate], in data set [1], the “Model predictions iMPCC (binary decision)” value (“Model predictions iMPCC” below) is reported as “−”. The Cmax in data set [2] was 22 nM.
With `C#CC1(O)CC[C@H]2[C@@H]3CCC4=CC(=O)CC[C@@H]4[C@H]3CC[C@@]21CC` (mixture of isomers) [Norgestrel], the Cmax in data set [2] was 9 nM.
For `CN(CCOc1ccc(CC2SC(=O)NC2=O)cc1)c1ccccn1` (stereo not shown) [Rosiglitazone], in data set [2], the maximum concentration (Cmax) was 1120 nM.
As for `O=c1n(CCCN2CCN(c3cccc(Cl)c3)CC2)nc2ccccn12` [Trazodone HCl], in data set [1], the “TC50 in MPCCs ATP” value is 351.5 µM, the “TC50 in MPCCs Albumin” value amounted to 205.5 µM and the “TC50 in MPCCs Urea” value was determined as 272.4 µM. In addition, in data set [3], the “TC50 in MPCCs Albumin” value is 64.8 µM, the “TC50 in MPCCs Urea” value was 121.8 µM and the “TC50 in MPCCs ATP” value was 201.7 µM. Also, the Cmax in data set [2] is 5060 nM.
Turning to `O=C(O)c1cn(C2CC2)c2cc(N3CCNCC3)c(F)cc2c1=O` [Ciprofloxacin HCl], in data set [1], the “TC50 in MPCCs ATP” value was found to be 804.2 µM, the “TC50 in MPCCs Albumin” value turned out to be 525.3 µM and the “TC50 in MPCCs Urea” value came to 326.3 µM.
Consider `CC(=O)[C@H]1CC[C@H]2[C@@H]3CCC4=CC(=O)CC[C@]4(C)[C@H]3CC[C@]12C` [Progesterone], for which, in data set [2], the Cmax was 193 nM.
Turning to `C[C@]12CC[C@@H]3c4ccc(O)cc4CC[C@H]3[C@@H]1CCC2=O` [Estrone], in data set [2], the Cmax was 22 nM.
For the compound `CCCCCCCCCCCCCCCC(=O)OC[C@@H](NC(=O)C(Cl)Cl)[C@H](O)c1ccc([N+](=O)[O-])cc1` [Chloramphenicol palmitate], in data set [1], the “Model predictions iMPCC” value is listed as “−”. Further, the maximum concentration (Cmax) in data set [2] was 20000 nM.
`C#C[C@]1(O)CC[C@H]2[C@@H]3CCC4=Cc5oncc5C[C@]4(C)[C@H]3CC[C@@]21C` [Danazol]: the Cmax in data set [2] was 74 nM.
As for `CC(=O)CC(c1ccccc1)c1c(O)c2ccccc2oc1=O` (stereo not shown) [Warfarin], the peak concentration (Cmax) in data set [2] is 4890 nM.
For the compound `CCCCC1C(=O)N(c2ccccc2)N(c2ccccc2)C1=O` [Phenylbutazone], in data set [3], the “TC50 in MPCCs Albumin” value was 6414.4 µM, the “TC50 in MPCCs Urea” value was 2532.0 µM and the “TC50 in MPCCs ATP” value is 7566.7 µM. Further, the maximum concentration (Cmax) in data set [2] was 487000 nM.
Regarding `CCN(CC)C(=O)/C(C#N)=C/c1cc(O)c(O)c([N+](=O)[O-])c1` [entacapone], in data set [1], the “albumin secretions in iMPCCs, toxicity over time and dose” value was “time- and dose-dependent toxicities”.
Take `Cc1ccc(N(CC2=NCCN2)c2cccc(O)c2)cc1` [Phentolamine mesylate]: the “Model predictions iMPCC” value in data set [1] was “−”. Further, the maximum concentration (Cmax) in data set [2] is 86 nM.
Take `C[C@]12C=CC(=O)C=C1CC[C@@H]1[C@@H]2C(=O)C[C@@]2(C)[C@H]1CC[C@]2(O)C(=O)CO` [Prednisone]: the “Model predictions iMPCC” value in data set [1] is “−”. The Cmax in data set [2] is 68 nM.
For the compound `CC(C)NCC(O)COc1cccc2ccccc12` (stereo not shown) [Propranolol], the “Model predictions iMPCC” value in data set [1] was “−”. In data set [2], the highest concentration (Cmax) is 201 nM.
Consider `Clc1ccc(COC(Cn2ccnc2)c2ccc(Cl)cc2Cl)c(Cl)c1` (stereo not shown) [Miconazole], for which the “Model predictions iMPCC” value in data set [1] is “−”. Moreover, the peak concentration (Cmax) in data set [2] is 24 nM.
Take `Cn1cc[nH]c1=S` [Methimazole]: in data set [2], the highest concentration (Cmax) was 1870 nM.
`O=C(O)Cc1ccccc1Nc1c(Cl)cccc1Cl` [Diclofenac]: in data set [3], the “TC50 in MPCCs Albumin” value was 141.9 µM, the “TC50 in MPCCs Urea” value is 206.2 µM and the “TC50 in MPCCs ATP” value is 638.4 µM.
Consider `C[C@H](CS)C(=O)N1CCC[C@H]1C(=O)O` [Captopril], for which, in data set [2], the Cmax was 4280 nM.
As to `CN(C)CCCN1c2ccccc2CCc2ccc(Cl)cc21` [Clomipramine], in data set [1], the “TC50 in MPCCs Albumin” value amounted to 9.4 µM and the “TC50 in MPCCs Urea” value was 13.8 µM. Besides, in data set [3], the “TC50 in MPCCs Albumin” value was 9.4 µM, the “TC50 in MPCCs Urea” value was 9.9 µM and the “TC50 in MPCCs ATP” value was 12.0 µM.

These data come from US10266806B2, “Stem cell-derived hepatocytes in co-culture and uses thereof” (Colorado State University Research Foundation, priority 2014, dated 2019).
